{"source": "paper PMC3177007", "about": "(Cancer gene therapy, 2011)", "key": {"MDA-MB-435 cells": {"system": "MDA-MB-435 cells", "assay": "Cellular uptake of Cy3 labeled-siRNA nanoplexes, confocal microscopy", "format": "cell-based, human", "conditions": "cells incubated 4 h with nanoplexes"}, "[1]": {"assay": "Particle size by dynamic light scattering", "format": "physicochemical", "conditions": "DLS; H3K(+H)4b:siRNA 2.2:1 (w/w)"}, "Zeta potential": {"assay": "Zeta potential", "format": "physicochemical", "conditions": "nanoplexes at selected ratios: H3K(+H)4b:siRNA 2.2:1; (RGD-PEG)-H3K(+H)4b/H2K4b/siRNA 3:0.8:1; (RGD-PEG)^4-H3K(+H)4b/H2K4b/siRNA 4:0.8:1"}, "[2]": {"conditions": "H2K4b alone; ref [18]; cited from earlier work"}, "siRNA": {"system": "siRNA", "assay": "Gel retardation assay of HK:siRNA nanoplexes", "format": "binding", "conditions": "H2K4b:siRNA ratio 0.8 to 1 (w:w); data not shown"}}, "data": [{"sequence": "KHHHKHHHKHHHHKHHHK [H3K(+H)4b]", "values": [{"measurement": "intracellular fluorescence pattern of Cy3 labeled-siRNA", "setting": "MDA-MB-435 cells", "value": "discrete intracellular particles"}, {"measurement": "size of the siRNA nanoplex", "setting": "[1]", "value": "149 ± 41", "unit": "nm"}, {"measurement": "zeta potential", "setting": "Zeta potential", "value": 37, "unit": "mV"}]}, {"sequence": "KHKHHKHHKHHKHHKHHKHK [H2K4b]", "values": [{"measurement": "effectiveness as carrier of siRNA in silencing its targets", "setting": "[2]", "value": "not an effective carrier"}, {"measurement": "siRNA retained in gel retardation assay", "setting": "siRNA", "value": 35, "unit": "%"}]}]}
